# In ChEMBL document CHEMBL3046848, “Synthesis and biological evaluation of novel series of thieno[2,3-d]pyrimidine derivatives as anticancer and antimicrobial agents” (2013):
# How the values were obtained:
# Assay type in all cases: functional
# [1] = tested on: TK-10; test: Anticancer activity against Homo sapiens (human) TK10 cells after 48 hr by SRB assay; conditions: TK-10, 48 h
# [2] = tested on: A498; test: Growth inhibition of Homo sapiens (human) A498 cells at 10 uM after 48 hr by SRB assay; conditions: A498, 48 h, read-out: GI
# [3] = tested on: KM12; test: Growth inhibition of Homo sapiens (human) KM12 cells at 10 uM after 48 hr by SRB assay; conditions: KM12, 48 h, read-out: GI
# [4] = tested on: MCF7; test: Anticancer activity against Homo sapiens (human) MCF7 cells after 48 hr by SRB assay; conditions: MCF7, 48 h
# [5] = tested on: NCI/ADR-RES; test: Anticancer activity against Homo sapiens (human) NCI/ADR-RES cells after 48 hr by SRB assay
# [6] = tested on: SW-620; test: Anticancer activity against Homo sapiens (human) SW620 cells after 48 hr by SRB assay; conditions: SW-620, 48 h
# [7] = tested on: HCT-116; test: Growth inhibition of Homo sapiens (human) HCT116 cells at 10 uM after 48 hr by SRB assay; conditions: HCT-116, 48 h, read-out: GI
# [8] = tested on: OVCAR-5; test: Anticancer activity against Homo sapiens (human) OVCAR5 cells after 48 hr by SRB assay; conditions: OVCAR-5, 48 h
# [9] = tested on: SR; test: Growth inhibition of Homo sapiens (human) SR cells at 10 uM after 48 hr by SRB assay; conditions: read-out: GI
# [10] = tested on: CCRF-CEM; test: Growth inhibition of Homo sapiens (human) CCRF-CEM cells at 10 uM after 48 hr by SRB assay; conditions: read-out: GI
# [11] = tested on: SF-539; test: Growth inhibition of Homo sapiens (human) SF539 cells at 10 uM after 48 hr by SRB assay; conditions: SF-539, 48 h, read-out: GI
# [12] = tested on: HCC 2998; test: Anticancer activity against Homo sapiens (human) HCC2998 cells after 48 hr by SRB assay; conditions: HCC 2998, 48 h
# [13] = tested on: NCI-H226; test: Growth inhibition of Homo sapiens (human) NCI-H226 cells at 10 uM after 48 hr by SRB assay; conditions: NCI-H226, 48 h, read-out: GI
# [14] = tested on: M14; test: Anticancer activity against Homo sapiens (human) M14 cells after 48 hr by SRB assay; conditions: M14, 48 h
# [15] = tested on: HT-29; test: Anticancer activity against Homo sapiens (human) HT-29 cells after 48 hr by SRB assay; conditions: HT-29, 48 h
# [16] = tested on: KM12; test: Anticancer activity against Homo sapiens (human) KM12 cells after 48 hr by SRB assay; conditions: KM12, 48 h
# [17] = tested on: MDA-MB-435; test: Growth inhibition of Homo sapiens (human) MDA-MB-435 cells at 10 uM after 48 hr by SRB assay; conditions: MDA-MB-435, 48 h, read-out: GI
# [18] = tested on: OVCAR-8; test: Anticancer activity against Homo sapiens (human) OVCAR8 cells after 48 hr by SRB assay; conditions: OVCAR-8, 48 h
# [19] = tested on: NCI-H460; test: Growth inhibition of Homo sapiens (human) NCI-H460 cells at 10 uM after 48 hr by SRB assay; conditions: NCI-H460, 48 h, read-out: GI
# [20] = tested on: HCT-15; test: Anticancer activity against Homo sapiens (human) HCT15 cells after 48 hr by SRB assay; conditions: HCT-15, 48 h
# [21] = tested on: UACC-257; test: Growth inhibition of Homo sapiens (human) UACC257 cells at 10 uM after 48 hr by SRB assay; conditions: UACC-257, 48 h, read-out: GI
# [22] = tested on: HL-60(TB); test: Anticancer activity against Homo sapiens (human) HL-60(TB) cells after 48 hr by SRB assay; conditions: HL-60, 48 h
# [23] = tested on: COLO 205; test: Anticancer activity against Homo sapiens (human) COLO205 cells after 48 hr by SRB assay; conditions: COLO 205, 48 h
# [24] = tested on: SNB-19; test: Growth inhibition of Homo sapiens (human) SNB19 cells at 10 uM after 48 hr by SRB assay; conditions: SNB-19, 48 h, read-out: GI
# [25] = tested on: RPMI-8226; test: Anticancer activity against Homo sapiens (human) RPMI8226 cells after 48 hr by SRB assay; conditions: RPMI-8226, 48 h
# [26] = tested on: T47D; test: Anticancer activity against Homo sapiens (human) T47D cells after 48 hr by SRB assay
# [27] = tested on: UACC-62; test: Anticancer activity against Homo sapiens (human) UACC62 cells after 48 hr by SRB assay; conditions: UACC-62, 48 h
# [28] = tested on: OVCAR-3; test: Growth inhibition of Homo sapiens (human) OVCAR3 cells at 10 uM after 48 hr by SRB assay; conditions: OVCAR-3, 48 h, read-out: GI
# [29] = tested on: SK-MEL-5; test: Anticancer activity against Homo sapiens (human) SK-MEL-5 cells after 48 hr by SRB assay; conditions: SK-MEL-5, 48 h
# [30] = tested on: HCT-15; test: Growth inhibition of Homo sapiens (human) HCT15 cells at 10 uM after 48 hr by SRB assay; conditions: HCT-15, 48 h, read-out: GI
# [31] = tested on: CAKI-1; test: Growth inhibition of Homo sapiens (human) CAKI-1 cells at 10 uM after 48 hr by SRB assay; conditions: CAKI-1, 48 h, read-out: GI
# [32] = tested on: SK-MEL-28; test: Anticancer activity against Homo sapiens (human) SK-MEL-28 cells after 48 hr by SRB assay; conditions: SK-MEL-28, 48 h
# [33] = tested on: OVCAR-8; test: Growth inhibition of Homo sapiens (human) OVCAR8 cells at 10 uM after 48 hr by SRB assay; conditions: OVCAR-8, 48 h, read-out: GI
# [34] = read-out: LC50 (the source's name)
structure (smiles),measurement,setting,value
Cc1c(C(N)=O)sc2nc(C)n(/N=c3\scc(-c4ccccc4)n3Cc3ccccc3)c(=O)c12,GI50,[1],3.78 µM
same,TGI,[1],> 100 µM
same,CC50,[1]; [34],> 100 µM
same,inhibition of growth at 10 µM,[2],99.3%
same,inhibition of growth at 10 µM,[3],86.4%
same,GI50,[4],2.92 µM
same,TGI,[4],> 100 µM
same,CC50,[4]; [34],> 100 µM
same,GI50,[5],2.9 µM
same,TGI,[5],29.2 µM
same,CC50,[5]; [34],> 100 µM
same,GI50,[6],3.16 µM
same,TGI,[6],> 100 µM
same,CC50,[6]; [34],> 100 µM
same,inhibition of growth at 10 µM,[7],70.9%
same,GI50,[8],4.33 µM
same,TGI,[8],> 100 µM
same,CC50,[8]; [34],> 100 µM
same,inhibition of growth at 10 µM,[9],87.2%
same,inhibition of growth at 10 µM,[10],112%
same,inhibition of growth at 10 µM,[11],77.8%
same,GI50,[12],3.05 µM
same,TGI,[12],> 100 µM
same,CC50,[12]; [34],> 100 µM
same,inhibition of growth at 10 µM,[13],69.1%
same,GI50,[14],3.88 µM
same,TGI,[14],84.5 µM
same,CC50,[14]; [34],> 100 µM
same,GI50,[15],3.04 µM
same,TGI,[15],> 100 µM
same,CC50,[15]; [34],> 100 µM
same,GI50,[16],3.37 µM
same,TGI,[16],> 100 µM
same,CC50,[16]; [34],> 100 µM
same,inhibition of growth at 10 µM,[17],87.8%
same,GI50,[18],3.49 µM
same,TGI,[18],> 100 µM
same,CC50,[18]; [34],> 100 µM
same,inhibition of growth at 10 µM,[19],92.5%
same,GI50,[20],2.64 µM
same,TGI,[20],> 100 µM
same,CC50,[20]; [34],> 100 µM
same,inhibition of growth at 10 µM,[21],95.2%
same,GI50,[22],6.68 µM
same,TGI,[22],> 100 µM
same,CC50,[22]; [34],> 100 µM
same,GI50,[23],2.39 µM
same,TGI,[23],7.32 µM
same,CC50,[23]; [34],> 100 µM
same,inhibition of growth at 10 µM,[24],70.6%
same,GI50,[25],13.9 µM
same,TGI,[25],> 100 µM
same,CC50,[25]; [34],> 100 µM
same,GI50,[26],3.25 µM
same,TGI,[26],> 100 µM
same,CC50,[26]; [34],> 100 µM
same,GI50,[27],4.26 µM
same,TGI,[27],83.2 µM
same,CC50,[27]; [34],> 100 µM
same,inhibition of growth at 10 µM,[28],95.7%
same,GI50,[29],1.81 µM
same,TGI,[29],3.75 µM
same,CC50,[29]; [34],7.75 µM
same,inhibition of growth at 10 µM,[30],85.1%
same,inhibition of growth at 10 µM,[31],141%
same,GI50,[32],3.56 µM
same,TGI,[32],> 100 µM
same,CC50,[32]; [34],> 100 µM
same,inhibition of growth at 10 µM,[33],85.3%
